According to ChEMBL document CHEMBL3861944 (Medchemcomm, 2016):

Test: Antioxidant activity assessed as DPPH free radical scavenging activity incubated for 30 mins in dark
Assay type: functional

For `O=C1O[C@H]([C@@H](O)CO)C(O)=C1O` [ASCORBIC ACID], the IC50 was 79.3 µM.
